Laboratory results reported in patent US20240115547A1, “PSYCHOTROPIC AGENTS AND USES THEREOF” (LB PHARMACEUTICALS INC., priority 2021, published 2024).

Tested on: Dopamine (e.g., D2/D3)
Assay: Dopamine RO % by raclopride PET after LB-102, various dosage regimens (Example 3)
Format: in vivo, human
Conditions: for Dopamine RO % (Caudate + Putamen): group mean
Protocol: Healthy subjects were dosed orally with LB102 of 50 mg QD (n=4), 75 mg QD (n=4), 100 mg QD (n=4), 50 mg SS (n=2), or 100 mg SS (n=2). Subjects were, on average, 33 years old. Subjects dosed QD were given a single dose on day 1 after which PET scans were obtained; and subjects dosed SS, i.e., steady state, were dosed once a day for 4 days and PET scans were obtained after dosing on Day 4.
Dynamic […] raclopride PET scans were obtained 0 h, 2.5 h, 7.5 h, and 23.5 h after LB-102 administration for the 50 mg and 100 mg QD treatment groups and after LB-102 administration of Day 4 for the 50 mg SS and 100 mg SS treatment groups; and 0 h, 3.5 h, 23.5 h, and 47.5 h after LB-102 administration for the 75 mg QD treatment group. Dopamine % RO were calculated using the STRM method (https://pubmed.ncbi.nlm.nih.gov/9345505/, which is incorporated herein by reference) and the combined RO % (average of caudate and putamen RO %) are shown as squares FIGS. 5A (50 mg QD), 5B (75 mg QD), 5C (100 mg QD); and FIGS. 6A (50 mg SS Day 4) and 6B (100 mg SS Day 4); and summarized in Table 3-A below.
Dynamic ^11C raclopride PET scan results for calculation of dopamine RO % were measured in caudate, putamen, thalamus, and temporal lobe of each subject tested, and are summarized in Tables 3-B to 3-F below.

[1] = 75 mg QD, Subject 3, 3.5 h after LB-102 admin.
[2] = 75 mg QD, Subject 3, 23.5 h after LB-102 admin.
[3] = 75 mg QD, Subject 3, 47.5 h after LB-102 admin.
[4] = 75 mg QD, Subject 4, 3.5 h after LB-102 admin.
[5] = 75 mg QD, Subject 4, 23.5 h after LB-102 admin.
[6] = 75 mg QD, Subject 4, 47.5 h after LB-102 admin.
[7] = 100 mg QD, Subject 1, 2.5 h after LB-102 admin.
[8] = 100 mg QD, Subject 1, 7.5 h after LB-102 admin.
[9] = 100 mg QD, Subject 1, 23.5 h after LB-102 admin.
[10] = 100 mg QD, Subject 2, 2.5 h after LB-102 admin.
[11] = 100 mg QD, Subject 2, 7.5 h after LB-102 admin.
[12] = 100 mg QD, Subject 2, 23.5 h after LB-102 admin.
[13] = 100 mg QD, Subject 3, 2.5 h after LB-102 admin.
[14] = 100 mg QD, Subject 3, 7.5 h after LB-102 admin.
[15] = 100 mg QD, Subject 3, 23.5 h after LB-102 admin.
[16] = 100 mg QD, Subject 4, 2.5 h after LB-102 admin.
[17] = 100 mg QD, Subject 4, 7.5 h after LB-102 admin.
[18] = 100 mg QD, Subject 4, 23.5 h after LB-102 admin.
[19] = 100 mg SS (Day 4), Subject 3, ~3 h after LB-102 admin.
[20] = 100 mg SS (Day 4), Subject 3, ~8 h after LB-102 admin.
[21] = 100 mg SS (Day 4), Subject 3, ~24 h after LB-102 admin.
[22] = 100 mg SS (Day 4), Subject 4, ~3 h after LB-102 admin.
[23] = 100 mg SS (Day 4), Subject 4, ~8 h after LB-102 admin.
[24] = 100 mg SS (Day 4), Subject 4, ~24 h after LB-102 admin.

`CCN1CCCC1CNC(=O)c1cc(S(=O)(=O)CC)c(NC)cc1OC` (stereo not shown) [LB-102] was tested, and the “Dopamine RO % Putamen” value [1] was 50%, the “Dopamine RO % Temporal lobe” value [1] was 28% and the “Dopamine RO % Thalamus” value [1] was 37%. The “Dopamine RO % Caudate” value [2] was 69%, the “Dopamine RO % Putamen” value [2] was 53% and the “Dopamine RO % Temporal lobe” value [2] was 20%. For the same molecule, the “Dopamine RO % Thalamus” value [2] was 36%, the “Dopamine RO % Caudate” value [3] was 52% and the “Dopamine RO % Putamen” value [3] was 38%. The “Dopamine RO % Temporal lobe” value [3] was 16%, the “Dopamine RO % Thalamus” value [3] was 20% and the “Dopamine RO % Caudate” value [4] was 5%. The “Dopamine RO % Putamen” value [4] was 2%, the “Dopamine RO % Temporal lobe” value [4] was −2% and the “Dopamine RO % Thalamus” value [4] was 5%. For the same molecule, the “Dopamine RO % Caudate” value [5] was 48%, the “Dopamine RO % Putamen” value [5] was 37% and the “Dopamine RO % Temporal lobe” value [5] was 27%. For the same molecule, the “Dopamine RO % Thalamus” value [5] was 21%, the “Dopamine RO % Caudate” value [6] was 13% and the “Dopamine RO % Putamen” value [6] was 12%. For the same molecule, the “Dopamine RO % Temporal lobe” value [6] was −6%, the “Dopamine RO % Thalamus” value [6] was −25% and the “Dopamine RO % (Caudate + Putamen)” value (100 mg QD, 0 h after LB-102 administration) was 0%. For the same molecule, the “Dopamine RO % (Caudate + Putamen)” value (100 mg QD, 3 h after LB-102 administration) was 41%, the “Dopamine RO % (Caudate + Putamen)” value (100 mg QD, 8 h after LB-102 administration) was 70% and the “Dopamine RO % (Caudate + Putamen)” value (100 mg QD, 24 h after LB-102 administration) was 69%. For the same molecule, the “Dopamine RO % Caudate” value [7] was 39%, the “Dopamine RO % Putamen” value [7] was 32% and the “Dopamine RO % Temporal lobe” value [7] was 18%. For the same molecule, the “Dopamine RO % Thalamus” value [7] was 28%, the “Dopamine RO % Caudate” value [8] was 75% and the “Dopamine RO % Putamen” value [8] was 67%. For the same molecule, the “Dopamine RO % Temporal lobe” value [8] was 24%, the “Dopamine RO % Thalamus” value [8] was 40% and the “Dopamine RO % Caudate” value [9] was 76%. The “Dopamine RO % Putamen” value [9] was 68%, the “Dopamine RO % Temporal lobe” value [9] was 13% and the “Dopamine RO % Thalamus” value [9] was 26%. The “Dopamine RO % Caudate” value [10] was 56%, the “Dopamine RO % Putamen” value [10] was 52% and the “Dopamine RO % Temporal lobe” value [10] was 17%. For the same molecule, the “Dopamine RO % Thalamus” value [10] was 42%, the “Dopamine RO % Caudate” value [11] was 78% and the “Dopamine RO % Putamen” value [11] was 75%. For the same molecule, the “Dopamine RO % Temporal lobe” value [11] was 17%, the “Dopamine RO % Thalamus” value [11] was 49% and the “Dopamine RO % Caudate” value [12] was 72%. For the same molecule, the “Dopamine RO % Putamen” value [12] was 66%, the “Dopamine RO % Temporal lobe” value [12] was 22% and the “Dopamine RO % Thalamus” value [12] was 43%. For the same molecule, the “Dopamine RO % Caudate” value [13] was 50%, the “Dopamine RO % Putamen” value [13] was 46% and the “Dopamine RO % Temporal lobe” value [13] was 20%. For the same molecule, the “Dopamine RO % Thalamus” value [13] was 34%, the “Dopamine RO % Caudate” value [14] was 84% and the “Dopamine RO % Putamen” value [14] was 77%. The “Dopamine RO % Temporal lobe” value [14] was 24%, the “Dopamine RO % Thalamus” value [14] was 46% and the “Dopamine RO % Caudate” value [15] was 76%. For the same molecule, the “Dopamine RO % Putamen” value [15] was 69%, the “Dopamine RO % Temporal lobe” value [15] was 22% and the “Dopamine RO % Thalamus” value [15] was 39%. The “Dopamine RO % Caudate” value [16] was 26%, the “Dopamine RO % Putamen” value [16] was 25% and the “Dopamine RO % Temporal lobe” value [16] was 10%. For the same molecule, the “Dopamine RO % Thalamus” value [16] was 31%, the “Dopamine RO % Caudate” value [17] was 55% and the “Dopamine RO % Putamen” value [17] was 49%. The “Dopamine RO % Temporal lobe” value [17] was 15%, the “Dopamine RO % Thalamus” value [17] was 49% and the “Dopamine RO % Caudate” value [18] was 68%. The “Dopamine RO % Putamen” value [18] was 56%, the “Dopamine RO % Temporal lobe” value [18] was 15% and the “Dopamine RO % Thalamus” value [18] was 39%. The “Dopamine RO % Caudate” value [19] was 84%, the “Dopamine RO % Putamen” value [19] was 80% and the “Dopamine RO % Temporal lobe” value [19] was 19%. For the same molecule, the “Dopamine RO % Thalamus” value [19] was 50%, the “Dopamine RO % Caudate” value [20] was 86% and the “Dopamine RO % Putamen” value [20] was 83%. For the same molecule, the “Dopamine RO % Temporal lobe” value [20] was 18%, the “Dopamine RO % Thalamus” value [20] was 51% and the “Dopamine RO % Caudate” value [21] was 80%. The “Dopamine RO % Putamen” value [21] was 73%, the “Dopamine RO % Temporal lobe” value [21] was 23% and the “Dopamine RO % Thalamus” value [21] was 48%. For the same molecule, the “Dopamine RO % Caudate” value [22] was 88%, the “Dopamine RO % Putamen” value [22] was 79% and the “Dopamine RO % Temporal lobe” value [22] was 32%. For the same molecule, the “Dopamine RO % Thalamus” value [22] was 78%, the “Dopamine RO % Caudate” value [23] was 89% and the “Dopamine RO % Putamen” value [23] was 80%. For the same molecule, the “Dopamine RO % Temporal lobe” value [23] was 25%, the “Dopamine RO % Thalamus” value [23] was 80% and the “Dopamine RO % Caudate” value [24] was 83%. The “Dopamine RO % Putamen” value [24] was 72%, the “Dopamine RO % Temporal lobe” value [24] was 31% and the “Dopamine RO % Thalamus” value [24] was 69%. For the same molecule, the “Dopamine RO % (Caudate + Putamen)” value (100 mg SS (once a day for 4 days), 3 h after Day 4 administration) was 88%, the “Dopamine RO % (Caudate + Putamen)” value (100 mg SS (once a day for 4 days), 8 h after Day 4 administration) was 82% and the “Dopamine RO % (Caudate + Putamen)” value (100 mg SS (once a day for 4 days), 24 h after Day 4 administration) was 76%. For the same molecule, the “dopamine RO after plasma concentration dropped” value (after combined plasma concentration of LB-102 and amisulpride dropped sub 10 ng/mL) was “persisted significantly”.
